In article PMC11237694, “Novel pentafluorosulfanyl-containing triclocarban analogs selectively kill Gram-positive bacteria” (Microbiology Spectrum, 2024):
≈ marks a conversion by molar mass, not a printed value. Entries after “also recorded” stand apart in the source; their conditions may differ.

Assays:
[1] = tested on: Klebsiella pneumoniae ATCC; assay: Planktonic susceptibility (MIC/MBC), 96-well broth microdilution; type: cell-based; conditions: K. pneumonia; for MIC: planktonic, overnight 37°C in MHB
Experimental: (§1) All bacterial strains subjected to testing had been stored at −70°C prior to the experiment. The experiment commenced by streaking small amounts of the frozen bacterial samples onto Muller-Hinton agar (MHA) culture medium (BD Bacto, Oxoid, Basingstoke, UK Cat# X296B) and allowing for overnight incubation. Bacteria were re-cultured on MHA plates as required to confirm colony morphology and lack of contamination. Strains tested were P. aeruginosa ATCC 27853, E. coli ATCC 25922, Staphylococcus aureus ATCC 25923, MRSA ATCC 33591, S. epidermidis ATCC 12228, Klebsiella pneumoniae ATCC, P. mirabilis ATCC 35659, and 10 clinical isolates of MRSA from Foothills Hospital, Calgary, Canada. To prepare for susceptibility testing, a protocol modified from Lemire et al was used ([28]). MHB was swab-inoculated from MHA colonies and shake-incubated until turbid. Dilution of the broth with 0.9% saline was performed as necessary to match a 1.0 McFarland standard.
(§2) MIC and MBC assessments were conducted on all bacterial strains using 96-well microtiter plates. To prepare the wells for bacteria, serial dilutions of the antibacterial agents were carried out along the rows of two microtiter plates. The antibacterials were 2-fold diluted with Mueller-Hinton broth (MHB) in each column, reaching a volume of 75 µL. The 1.0 McFarland standard was diluted 15-fold in MHB, and 75 µL of inoculum was added to the wells treated with antibacterials, resulting in a total volume of 150 µL. The microtiter plates were covered and then shake-incubated overnight at 150 rpm and 37°C. MIC was determined based on visible bacterial growth. In cases of antibacterial opacity or ambiguous results, streaking of well cultures on MHA, overnight incubation, and subsequent comparison with controls were performed. MBC was determined by transferring 3 µL of culture from all MIC microtiter plate wells to 147 µL of Mueller-Hinton broth in fresh plates. These plates were shake-incubated overnight at 150 rpm and 37°C, and bacterial growth was visually inspected.

[2] = tested on: P. mirabilis ATCC 35659; assay: as above; type: cell-based; conditions: Proteus mirabilis; for MBC: ATCC35659; for MIC: ATCC35659, planktonic, overnight 37°C in MHB
Experimental: as §1, §2

[3] = tested on: Staphylococcus aureus ATCC 25923; assay: as above; type: cell-based; conditions: S. aureus; for MBC / MIC: Staphylococcus aureus, ATCC25923; for MIC: planktonic, overnight 37°C in MHB
Experimental: as §1, §2

[4] = tested on: 10 clinical isolates of MRSA from Foothills Hospital, Calgary; assay: Planktonic susceptibility (MIC/MBC) of MRSA clinical isolates; type: cell-based, methicillin-resistant S. aureus; conditions: Staphylococcus aureus
Experimental: as §1
as §2, with “In cases of antibacterial opacity or ambiguous results, streaking of well cultures on MHA, overnight incubation, and subsequent comparison with controls were performed.” left out

[5] = tested on: MRSA strain MW2; assay: Intravenous MRSA infection model in mice, CFU enumeration in organs; type: in vivo; conditions: single i.p. injection 100 µl of 5 mM, 1 hour before or after i.v. infection with 5 × 10^7 CFU MW2; 24 hours
Experimental: Mice were infected systemically with the community-associated MRSA strain MW2 at an infectious dose of 5 × 10^7 colony-forming units (CFUs) as described ([26]). Treatment groups were injected intraperitoneally with the compound of interest 1 hour before or after infection, with a saline-injected control group. After 24 hours of infection, mice were sacrificed, and blood, peritoneal fluid, spleen, liver, kidney (left), heart, and lungs were harvested for CFU enumeration to determine the bacterial burden in these organs. […] Although disappointing, the lack of promising results in the single-dose treatments may have a variety of reasons, including rapid metabolism and excretion of the compounds by the liver, or the acknowledged intracellular aspect of S. aureus in its infectious cycle ([27]). […] Additionally, investigating the possibility of topical application for these components presents another viable option.
Animal experiments were performed with 6- to 10-week/old adult male mice. Mice were kept in a pathogen-free facility under standardized conditions: temperature of 21–22°C, illumination of 12-hour light–12-hour dark, and access to tap water and food. Experimental animal protocols were approved by the University of Calgary Animal Care Committee and followed the Canadian Council for Animal Care Guidelines.
MW2 Staphylococcus aureus was grown on brain heart infusion (BHI) agar plates (BD biosciences). A single colony was grown overnight in BHI medium (BD biosciences) at 37°C while shaking. Subcultures of […] of the overnight (ON) culture were grown in 3 mL of the same culture medium for 2 hours at 37°C while shaking to reach the exponential growth phase. Bacteria were brought to a concentration of OD660 1.0 in saline. […]
For assessing bacterial by CFU enumeration, the mice were anesthetized with isoflurane (Fresenius Kabi) and washed with 70% ethanol to collect blood and sacrificed to further collect liver, spleen, kidney (left), heart, and lungs. […] Cultures were counted, and CFUs were calculated taking the weight of the organ into account.

| Compound | MBC [1] [µM] | MIC [1] [µM] | MBC [2] [µM] | MIC [2] [µM] | antibacterial efficacy (in words) [3] | MBC [3] [µM] | MIC [3] [µM] | MBC ([4]; MRSA #1 clinical isolate) [µM] | MIC ([4]; MRSA #1 clinical isolate) [µM] | MBC ([4]; MRSA #2 clinical isolate) [µM] | MIC ([4]; MRSA #2 clinical isolate) [µM] | MBC ([4]; MRSA #3 clinical isolate) [µM] | MIC ([4]; MRSA #3 clinical isolate) [µM] | MBC ([4]; MRSA #4 clinical isolate) [µM] | MIC ([4]; MRSA #4 clinical isolate) [µM] | MBC ([4]; MRSA #5 clinical isolate) [µM] | MIC ([4]; MRSA #5 clinical isolate) [µM] | MBC ([4]; MRSA #6 clinical isolate) [µM] | MIC ([4]; MRSA #6 clinical isolate) [µM] | MBC ([4]; MRSA #7 clinical isolate) [µM] | also measured |
| --- | --- | --- | --- | --- | --- | --- | --- | --- | --- | --- | --- | --- | --- | --- | --- | --- | --- | --- | --- | --- | --- |
| O=C(Nc1ccc(S(F)(F)(F)(F)F)cc1)Nc1ccc(Cl)c(Cl)c1 [EBP-59] | > 5000 | > 5000 | 2 (≈ 0.814 µg/mL) | 2 (≈ 0.814 µg/mL) | effective | 6.1 (≈ 2.48 µg/mL) | < 0.3 | 5 (≈ 2.04 µg/mL) | < 2 | < 2 | < 2 | < 2 | < 2 | 5 (≈ 2.04 µg/mL) | < 2 | 10 (≈ 4.07 µg/mL) | < 2 | < 2 | < 2 | < 2 | MIC ([4]; MRSA #7 clinical isolate): < 2 µM; MBC ([4]; MRSA #8 clinical isolate): 5 µM (≈ 2.04 µg/mL); MIC ([4]; MRSA #8 clinical isolate): < 2 µM; MBC ([4]; MRSA #9 clinical isolate): 20 µM (≈ 8.14 µg/mL); MIC ([4]; MRSA #9 clinical isolate): < 2 µM; MBC ([4]; MRSA #10 clinical isolate): 40 µM (≈ 16.3 µg/mL); MIC ([4]; MRSA #10 clinical isolate): < 2 µM; bacterial burden (CFU) in blood, spleen, liver, kidney, heart, lungs [5]: failed to reduce bacterial counts; also recorded: not significant |
| O=C(Nc1ccc(Cl)cc1)Nc1cccc(S(F)(F)(F)(F)F)c1 [EBP-62, 1-(4-chlorophenyl)-3-(3-(pentafluoro-λ^6-sulfanyl)phenyl)urea] | > 5000 | > 5000 | > 5000 | > 5000 | effective | 300 (≈ 112 µg/mL) | 0.3 (≈ 0.112 µg/mL) | 80 (≈ 29.8 µg/mL) | < 2 | 5 (≈ 1.86 µg/mL) | < 2 | < 2 | < 2 | 20 (≈ 7.45 µg/mL) | < 2 | 20 (≈ 7.45 µg/mL) | < 2 | 5 (≈ 1.86 µg/mL) | < 2 | 10 (≈ 3.73 µg/mL) | MIC ([4]; MRSA #7 clinical isolate): 5 µM (≈ 1.86 µg/mL); MBC ([4]; MRSA #8 clinical isolate): 80 µM (≈ 29.8 µg/mL); MIC ([4]; MRSA #8 clinical isolate): 5 µM (≈ 1.86 µg/mL); MBC ([4]; MRSA #9 clinical isolate): 40 µM (≈ 14.9 µg/mL); MIC ([4]; MRSA #9 clinical isolate): < 2 µM; MBC ([4]; MRSA #10 clinical isolate): 80 µM (≈ 29.8 µg/mL); MIC ([4]; MRSA #10 clinical isolate): 5 µM (≈ 1.86 µg/mL); bacterial burden (CFU) in blood, spleen, liver, kidney, heart, lungs [5]: failed to reduce bacterial counts; also recorded: not significant |
| O=C(Nc1ccc(Cl)cc1)Nc1ccc(S(F)(F)(F)(F)F)cc1 [EPB-61, 1-(4-Chlorophenyl)-3-(4-(pentafluoro-λ^6-sulfanyl)phenyl)urea] | > 5000 | > 5000 | > 5000 | > 5000 | effective | 95 (≈ 35.4 µg/mL) | 9.5 (≈ 3.54 µg/mL) | 40 (≈ 14.9 µg/mL) | < 2 | 10 (≈ 3.73 µg/mL) | < 2 | 10 (≈ 3.73 µg/mL) | < 2 | 20 (≈ 7.45 µg/mL) | < 2 | 40 (≈ 14.9 µg/mL) | < 2 | 20 (≈ 7.45 µg/mL) | < 2 | 20 (≈ 7.45 µg/mL) | MIC ([4]; MRSA #7 clinical isolate): < 2 µM; MBC ([4]; MRSA #8 clinical isolate): 40 µM (≈ 14.9 µg/mL); MIC ([4]; MRSA #8 clinical isolate): < 2 µM; MBC ([4]; MRSA #9 clinical isolate): 40 µM (≈ 14.9 µg/mL); MIC ([4]; MRSA #9 clinical isolate): < 2 µM; MBC ([4]; MRSA #10 clinical isolate): 20 µM (≈ 7.45 µg/mL); MIC ([4]; MRSA #10 clinical isolate): < 2 µM; bacterial burden (CFU) in blood, spleen, liver, kidney, heart, lungs [5]: failed to reduce bacterial counts; also recorded: not significant |
